Laboratory results from US20230172877A1, “METABOLITES RELEASED FROM APOPTOTIC CELLS ACT AS NOVEL TISSUE MESSENGERS” (University of Virginia Patent Foundation, priority 2020, published 2023).
Peptide text beside a SMILES is read from it. * marks the point of attachment. Cbz = O=C(OCc1ccccc1)*; CH2F = FC*

Columns and labels:
Panx1 = target: T1, Panx1 (Homo sapiens, UniProt Q96RD7); assay: Panx1-dependent metabolite release from apoptotic Jurkat T cells with Panx1 inhibitors; format: cell-based; conditions: UV-induced apoptosis; spironolactone 50 µM, trovafloxacin 25 µM
T1 construct: host or cells: Jurkat E6.1 T cells (wild type), apoptotic
Experimental: Apoptosis induction. Wild type Jurkat E6.1 (ATCC) or dominant negative Pannexinl-expressing (Panxl-DN)^10 cells were resuspended in RPMI-1640 containing 1% BSA, 1% PSQ, and 10 mM HEPES and treated with 250 ng ml^-1 anti-Fas (clone CH11), 10 µM ABT-737, or exposed to 150 mJ cm^-2 ultraviolet C irradiation for 1-2 min (Stratalinker). Jurkat cells were incubated for 4 hours after apoptosis induction. For apoptosis induction in the presence of Panx1 inhibitors, Jurkat cells were treated with spironolactone (50 µM) or trovafloxacin (25 µM) in RPMI containing 1% BSA and 1% PSQ.
For untargeted metabolomics analysis through Metabolon, recovery standards were added to samples in order to monitor QC of the analysis. Samples were methanol precipitated under shaking for 2 minutes. […] Samples were analyzed under 4 different conditions; two for analysis by two separate reverse phase (RP)/UPLC-MS/MS methods with positive ion mode ESI, one for analysis by RP/UPLC-MS/MS with negative ion mode ESI, and one for analysis by HILIC/UPLC-MS/MS with negative ion mode ESI. […]
During the above analyses of EXAMPLE 1, it was noted that despite the many cellular metabolites detected in the pellet, only a subset is released; further, even within a known metabolic pathway, only some but not others were released. […]

arthritis = conditions: FBP alone, reference 26; cited from earlier work
[1] = exogenous supplementation, reference 13; cited from earlier work
[2] = system: Jurkat cells, A549 lung epithelial cells, and HCT116 colonic epithelial cells; assay: Apoptosis-dependent release of conserved metabolites (analytical kits) with or without caspase inhibition; format: cell-based, human; conditions: 50 uM zVAD pre-treatment for 10 min; UV, ABT-737, TRAIL
Experimental: A549 cells were treated with 10 µM ABT-737 or exposed 600mJ cm^-2 and incubated for twenty-four hours. HCT-116 cells were treated with 10 µM ABT-737 or 100 ng ml^-1 TRAIL and incubated for 24 hours. All cells were pre-treated for 10 min with 50 uM zVAD prior to apoptosis induction in indicated experiments. All cells were incubated at 37° C. with 5% CO2 for indicated times.
Metabolite detection. Spermidine detection was measured using a colorimetric kit (Cloud-Clone Corp.) via manufacturers’ protocol. Briefly, supernatants taken from cells under specified conditions were centrifuged at 1000 x g for twenty minutes. All reagents were brought to room temperature prior to use. […] 90 µl of substrate solution was added to each well and incubated for 10 minutes at 37° C. after which 50 µl of stop solution was added, the plate was mixed and immediately measure at 450 nm on a plate reader (Flex station 3). […]
ATP was measure using a luciferase-based kit (Promega) via manufactures’ protocol. […] Luminescence was immediately measure on the Flex Station 3. […]
Glycerol-3-phosphate and creatine were measured based on manufacturers’ protocols (Abcam). […] OD at 450 nm or fluorescence at Ex/Em 535/587 was measured for glycerol-3-phosphate and creatine, respectively.
To test other cell types and additional apoptotic modalities, we analyzed the release of four ‘conserved metabolites’ via analytical kits. […]

T1 sequence (Q96RD7 1-379 limits assumed): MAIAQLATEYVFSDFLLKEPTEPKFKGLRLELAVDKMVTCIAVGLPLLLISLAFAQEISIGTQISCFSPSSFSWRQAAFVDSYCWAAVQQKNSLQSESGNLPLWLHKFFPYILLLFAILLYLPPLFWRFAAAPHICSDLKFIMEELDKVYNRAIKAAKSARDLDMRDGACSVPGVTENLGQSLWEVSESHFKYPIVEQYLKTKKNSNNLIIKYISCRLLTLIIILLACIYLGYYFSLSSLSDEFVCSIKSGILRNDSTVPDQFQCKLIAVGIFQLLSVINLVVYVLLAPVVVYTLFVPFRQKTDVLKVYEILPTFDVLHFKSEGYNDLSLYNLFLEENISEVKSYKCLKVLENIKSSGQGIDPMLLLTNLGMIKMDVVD

CC(=O)S[C@@H]1CC2=CC(=O)CC[C@]2(C)[C@H]2CC[C@@]3(C)[C@@H](CC[C@@]34CCC(=O)O4)[C@H]12 [Spiro, spironolactone]
Apoptotic metabolites in Jurkat T cell supernatants when Panx1 was inhibited (Panx1): reduced

N[C@@H]1[C@H]2CN(c3nc4c(cc3F)c(=O)c(C(=O)O)cn4-c3ccc(F)cc3F)C[C@@H]12 [Trovan, trovafloxacin]
Apoptotic metabolites in Jurkat T cell supernatants when Panx1 was inhibited (Panx1): reduced

O=C(COP(=O)(O)O)[C@@H](O)[C@H](O)[C@H](O)COP(=O)(O)O [fructose 1,6-bisphosphate (FBP), fructose 1,6-bisphosphate]
Role in arthritis (arthritis): can have ameliorative roles in arthritis

NCCCCNCCCN [spermidine]
Effect on inflammation and longevity [1]: can reduce inflammation and improve longevity

COC(=O)C[C@H](NC(=O)[C@H](C)NC(=O)[C@@H](NC(=O)OCc1ccccc1)C(C)C)C(=O)CF [zVAD, zVAD-FMK] (Cbz-Val-Ala-Asp(OMe)-CH2F)
Apoptosis-dependent release of the tested metabolites with caspase inhibition [2]: attenuation
